From patent US20200377568A1, “Novel IL-4-/IL-13-derived peptide compounds for the treatment or prevention of neurodegenerative or neuroinflammatory diseases” (Universitätsmedizin der Johannes Gutenberg-Universität Mainz, priority 2018, published 2020) come the findings set out here.

Data set [1] concerns dissociated cortical neurons. Kind of data set: Phosphorylation of signalling molecules (Western blot). Format: cell-based, mouse. The settings on record: 50 ng/ml, 10 min treatment, FIG. 5B. How it is done: A: Cortical outgrowth in response to 50 ng/ml IL-4, Link4, or Link13, compared to PBS control. The increase in growth at 48 h was calculated over the basal (untreated) growth at 24 h. B: Effects on phosphorylation of signalling molecules after 10 min treatment of dissociated cortical neurons with IL-4, Link4 or PBS.
Neonatal (P1-3) cortex explants were dissected from 250 μm thick vibratome (HM650V, Thermo Fisher) sections from Bregma 0 to −1.5 (motor cortex). Cortical layer V was micro-dissected, plated on poly-D-lysine (0.5 mg/ml) and laminin (1 mg/ml)-coated glass coverslips and grown for 24 h in neurobasal medium with 2% horse serum, 2% B27, 1% glutamax and 0.5% penicillin/streptomycin. Explants were treated for 48 h with rIL-4 (50 ng/ml), Link4 (50 ng/ml), Link13 (50 ng/ml) or PBS. Axon length was assessed using Adobe Photoshop by measuring the distance of the 40 longest axons, corrected for the initial growth at 24 h. […]
For Western blotting, the following primary antibodies were used: anti-IRS1 (EMD Millipore), anti-phospho-IRS1 (Cell Signaling Technology), anti-MAPK and anti-phospho-MAPK (Cell Signaling Technology), anti-PKCγ (Santa-Cruz), anti-phospho-PKCγ (Biozol). DyLight […]-coupled secondary antibodies were used for quantitative analysis of the proteins using the Li-Cor Odyssey FC imaging system (Li-Cor Bioscience). […]

Data set [2] concerns CD11b+ bone marrow-derived macrophages (BMDMs). Kind of data set: Differentiation of bone marrow-derived macrophages. As to conditions: different concentrations, FIG. 4A. Format: cell-based, mouse. How it is done: (§1) A-B: Effects of incubation with IL-4 and different concentrations of Link4 and Link13 on the differentiation of A: CD11b^+ bone marrow-derived macrophages (BMDMs) into F80^+CD206^+ cells, and B: CD4^+ T cells into Gata3^+ cells. C-D: FACS results for different populations of T cells and CD11b^+MHCII^+ monocytes/macrophages/microglia of immune cells isolated from C: spleen and D: central nervous system (CNS) of EAE mice treated with PBS, IL-4 or Link4.
In order to investigate whether Link4 and Link13 are able to modulate immune cells, in vitro assays were performed on bone marrow-derived macrophages (BDMBs) and on naïve T cells.
Murine BMDMs were isolated from adult C57BL/6 mice. The tibia and femur bones were flushed with sterile PBS and the bone marrow was collected in washing medium. After filtering the cell suspension trough a 100 μm nylon mesh, the cells were centrifuged (5 min, 550 g, 4° C.) and resuspended in mouse medium (10% FCS, 1% P/S, 1% L-glutamine, 0.1% β-mercaptoethanol, 1% HEPES in RPMI buffer). For the in vitro generation of BMDMs cells were plated in 6 well-plates and exposed to 20 ng/ml Macrophage […] (M-CSF) for 4 days. For the activation of the cells, Dexametason (5×10^−7M), LPS (10 μg/ml) and IL-4 (10 ng/ml) were added to the culture for the following 3 days.

Data set [3] concerns immune cells isolated from spleen. Kind of data set: FACS of immune cells from spleen of EAE mice after nasal treatment. Format: in vivo, mouse. The settings on record: intranasal treatment of EAE mice. How it is done: as §1
Subsequently, the effects of IL-4 and Link4 on immune cells were analysed when applied intranasally, similarly as in FIG. 3B. Since nasally applied treatments can enter the periphery (lungs, blood stream) it was of utmost importance to check whether the substances affected the lymphocyte populations in the spleen. A reduction was found of CD8^+ cytotoxic T-cells for Link4, whereas all CD4^+ T helper cell types were unchanged. The CD11 b+MHCII+ population of monocytes/macrophages was also not changed.
CNS and spleens were removed from EAE mice treated with nasal IL-4, Link4 or PBS at d35 and immune cells were isolated as previously described (M. Paterka, J. O. Voss, J. Werr, E. Reuter, S. Franck, T. Leuenberger, J. Herz, H. Radbruch, T. Bopp, V. Siffrin, and F. Zipp, Dendritic cells tip the balance towards induction of regulatory T cells upon priming in experimental autoimmune encephalomyelitis. J Autoimmun 67, 108-114 (2017)). For in vitro stimulation of T cells, anti-CD3 (145-2C11) and anti-CD28 (37.51) were used. The following antibodies were used for flow cytometry with the BD FACSCanto II (BD Bioscience): anti-CD4 PEcγ7 (RM4-5), anti-CD8 FITC (53-6.7), anti-CD3APC (145-2c11), anti-CD11 b bio (M1/70), anti-MHCII PE (AF6-120.1), anti-CD11 b V450 (HL311B), anti-CD45 AF605 (30-F11), anti-GM-CSF PE (MP1-22E9), anti-IL17 APC (eBio17B7), anti-TNFα AF700 (MP6-XT22), anti-IFN-γV450 (XMG1.2), anti-GATA-3 PE (TWAZ), anti-FOXP3 PEcy7(FZK-16s), anti-IL-10 APC (JESS-16E3), anti-CD4 V450 (RM4-5). All antibodies were purchased from eBioscience or Biolegend.

As to “RARSEIIGIGSKSIMQMDY (listed as Mus musculus) [Link4]”, the “phosphorylation of signalling molecules (neuronal signalling)” value in data set [1] was “same neuronal signalling effects as IL-4”. The “differentiation of CD11b+ BMDMs into F80+CD206+ cells” value in data set [2] is given as “did not occur”. In addition, in data set [3], the “CD4+ T helper cell types” value was “unchanged”, the “CD8+ cytotoxic T-cells” value is “reduction” and the “CD11b+MHCII+ population of monocytes/macrophages” value is “not changed”.
